Each structure is given as a SMILES string.

`Cc1cnc(C2=NC(C)(C(C)C)C(=O)N2)c(C(=O)O)c1` (centres undefined): the log partition coefficient (logP) (usually a log measure of how a compound divides between an organic and an aqueous phase) worked out at 0.39.

For the compound `COP(=O)(OC)OC1=C(Cl)C2C=CCC12` (centres undefined), the logP turned out to be 2.32.

As to `CCNP(=S)(OC)O/C(C)=C/C(=O)OC(C)C` (centres undefined), the logP is 3.82.

The compound `COC(C)(C)CCCC(C)C/C=C/C(C)=C/C(=O)OC(C)C` (centres undefined) returned a logP of 5.21.

The compound `CCOP(=S)(OCC)Oc1ccc(=O)n(-c2ccccc2)n1` registered a logP of 3.2.

In turn, `CCCSP(=O)(OCC)Oc1ccc(Br)cc1Cl` (centres undefined) showed a logP of 4.44.

On to `CCOc1nc(C(Cl)(Cl)Cl)ns1`, for which the logP was determined as 3.37.

Consider `O=C(Nc1ccc(Cl)cc1C(O)c1ccccc1)c1ccncc1` (centres undefined), for which the logP worked out at 3.13.

On to `CCOP(=O)(SC(C)CC)SC(C)CC` (centres undefined), for which the logP was 3.9.

As for `CCSCCSP(=S)(OC)OC`, the logP is 3.46.

Turning to `C/C=C/C(=O)Oc1c(C(C)CCCCCC)cc([N+](=O)[O-])cc1[N+](=O)[O-]` (centres undefined), the logP was found to be 4.54.

For the compound `C#CCOS(=O)OC1CCCCC1Oc1ccc(C(C)(C)C)cc1` (centres undefined), the logP came to 3.73.

As for `CCOc1ccc(C2(C(=O)OC(C#N)c3cccc(Oc4ccccc4)c3)CC2(Cl)Cl)cc1` (centres undefined), the logP came out at 4.19.

As to `COP(=S)(OC)Oc1ccc(Sc2ccc(OP(=S)(OC)OC)cc2)cc1`, the logP was found to be 4.91.

On to `CC(C)=CC1C(C(=O)OCc2coc(Cc3ccccc3)c2)C1(C)C` (centres undefined), for which the logP stood at 5.4.

Compound `CC(C)C1CCC(Cc2ccc(Cl)cc2)C1(O)Cn1cncn1` (centres undefined) had a logP of 4.21.

As to `Nc1cnn(-c2ccccc2)c(=O)c1Cl`, the logP was determined as 1.19.

`CC(C)N(Cc1ccccc1)C(=O)C(C)(C)C`: the logP is 3.

`Cl/C=C\CCl` showed a logP of 2.06.

`COc1ccc(/C(=C\C(=O)N2CCOCC2)c2ccc(Cl)cc2)cc1OC` had a logP of 2.73.

As to `CC(C)c1cc(Oc2ccccc2)cc(C(C)C)c1NC(=S)NC(C)(C)C`, the logP worked out at 5.76.

With `CCOCN(C(=O)CCl)c1c(C)cccc1CC`, the logP was determined as 3.03.

`OC1(c2ccc(Cl)cc2)CCCCCC1n1cncn1` (centres undefined) came in with a logP of 3.02.

Consider `CC1(C)CON(Cc2ccccc2Cl)C1=O`, for which the logP was found to be 2.5.

With `C=CCNC(=O)CN(CC=C)C(=O)C(Cl)Cl`, the logP amounted to 1.

As for `COC(=O)c1c(Cl)c(Cl)c(C(=O)OC)c(Cl)c1Cl`, the logP is 4.28.

With `CCOC(=O)C1(C)OC(=O)N(c2cc(Cl)cc(Cl)c2)C1=O` (centres undefined), the logP worked out at 3.3.

`CCCOC(=O)c1ccc(C(=O)OCCC)nc1`: the logP was determined as 3.57.

Consider `COC(=O)C(C)N(C(=O)c1ccco1)c1c(C)cccc1C` (racemic), for which the logP came to 2.7.

For the compound `CCCCC(CC)CN1C(=O)C2C3C=CC(C3)C2C1=O` (centres undefined), the logP came to 3.7.

The compound `CCCCCOC(=O)COc1cc(N2C(=O)C3=C(CCCC3)C2=O)c(F)cc1Cl` yielded a logP of 4.99.

In turn, `CCOC(=O)[C@@H](C)Oc1ccc(Oc2nc3ccc(Cl)cc3o2)cc1` had a logP of 4.58.

As for `CC1COc2ccccc2N1C(=O)C(Cl)Cl` (centres undefined), the logP came out at 2.7.

`CCCCOC(=O)N(C)SN(C)C(=O)Oc1cccc2c1OC(C)(C)C2` yielded a logP of 4.6.

In turn, `CN(C)C(=O)Nc1ccc(-n2nc(C(C)(C)C)oc2=O)c(Cl)c1` had a logP of 2.51.

In turn, `COCC(C)N(C(=O)CCl)c1c(C)csc1C` (centres undefined) displayed a logP of 2.15.

As for `O=C(NC(=O)c1ccccc1Cl)Nc1ccc(OC(F)(F)F)cc1`, the logP came to 4.91.

As to `CON(C)C(=O)Nc1ccc(Br)cc1`, the logP worked out at 2.41.

Compound `CCOC(=O)c1cn2nc(OP(=S)(OCC)OCC)cc2nc1C` displayed a logP of 3.8.

Regarding `CCC1OCC(COc2ccc(Oc3ccccc3)cc2)O1` (centres undefined), the logP was found to be 4.3.

Consider `CCSC(C)CC1CC(=O)C(/C(CC)=N/OC/C=C/Cl)=C(O)C1` (centres undefined), for which the log partition coefficient (logP) was 4.19.

Compound `CC1(C)CCC(Cc2ccc(Cl)cc2)C1(O)Cn1cncn1` (centres undefined) displayed a logP of 3.93.

Take `CC1(C)C(C=C(Cl)Cl)C1C(=O)OC(C#N)c1ccc(F)c(Oc2ccccc2)c1` (centres undefined): the logP came out at 5.93.

`CC(C)NC(=O)N1CC(=O)N(c2cc(Cl)cc(Cl)c2)C1=O` came in with a logP of 3.
